Assays:
[1] = Microsome incubation, human liver microsomes (metabolic stability); type: in vitro ADME; settings: for MAB (human): maximal achievable bioavailability = 1−E (hepatic extraction ratio), extrapolated from human microsomal clearance; for microsomal CLint at 10 μM: pH 7.4, human liver microsomes 2.0 mg prot/mL, test compound 10 μM, 37° C., NADPH regenerating system, calculated from in vitro half-life, read-out: Intrinsic clearance (human)
Experimental: (§1) The compounds of formula I of the present invention are further characterized by high metabolic stability. This parameter is a prerequisite for good bioavailability, which is necessary to obtain medicaments with acceptable in-vivo activity. The metabolic stability has been tested by the following method:
(§2) Incubation mixtures consisted of liver microsomes (rat 1.0 mg prot/mL or human 2.0 mg prot/mL), test compound 10 μM, MgCl2 (3.3 mM), and an NADPH regenerating system consisting of glucose-6-phosphate dehydrogenase, NADPH and glucose-6-phosphate (equivalent to 1 mM NADPH) in a total volume of 1.0 mL of potassium phosphate buffer 100 mM pH 7.4. Reactions were initiated by addition of the NADPH regenerating system at 37° C. At the time of 1, 5, 9, 13, 17, 21, 25, and 29 min a 5 μL aliquot was directly analysed on a HPLC-MS/MS system consisting of a HP 1100 quaternary pump with degasser and a PE-Sciex API-2000 MS/MS spectrometer. The analytical column was a Waters Symmetry Shield RP8 (2.1*50 mm with a […] particle size). A polarity non linear gradient from phase A (MeOH/Ac. Form.1% 20/80) to phase B (MeOH) was applied for a total run time of 2 minutes at a flow rate of 0.25 mL/min. The PE-Sciex API-2000 MS/MS spectrometer was used for detection of the parent compound. In vivo metabolic clearance was predicted according to published procedures [Houston, Biochem. Pharmacol. 47:1469–1479 (1994)]. In brief, the intrinsic clearance (Clearance, see table below) is calculated from the measured in vitro half-life taking into account incubation volume and microsomal protein used for the in vitro incubation. The intrinsic clearance is expressed in terms of μl/min/mg microsomal protein. For in vivo extrapolations, the hepatic extraction ratio (E) was calculated. Here it is reported the % MAB value which is equal to 1−E. The MAB (maximal achievable bioavailability) values express the maximal bioavailability that one can achieve with the given clearance values.

[2] = target: T1, rat mGlu 1a receptor (Rattus norvegicus, UniProt P23385); test: [Ca2+]i measurement (FLIPR) on mGlu 1a transfected EBNA cells (headed "Binding Assay"); type: cell-based; settings: rat mGlu 1a transiently transfected EBNA cells, Fluo-3 AM, activation (agonist) curves
T1 construct: expressed in transfected cells; host or cells: EBNA cells (transient transfection)
Experimental: The compounds of the present invention are group I mGlu receptor agonists. The compounds show activities, as measured in the below binding assay, of 0.2 μM or less.
cDNA encoding rat mGlu 1a receptor obtained from Prof. S. Nakanishi (Kyoto, Japan) was transiently transfected into EBNA cells using a procedure described by Schlaeger et al, New Dev. New Appl. Anim. Cell Techn., Proc. ESACT Meet., 15, (1998), 105–112 and 117–120. [Ca^2+]i measurements were performed on mGlu 1a transfected EBNA cells after incubation of the cells with Fluo-3 AM (0.5 μM final concentration) for 1 hour at 37° C. followed by 4 washes with assay buffer (DMEM supplemented with Hank's salt and 20 mM HEPES. [Ca^2+]i measurements were done using a fluorometric imaging plate reader (FLIPR, Molecular Devices Corporation, La Jolla, Calif., USA). When compounds were evaluated as antagonists they were tested against 10 μM glutamate as agonist.
The activation (agonists) curves were fitted with a four parameter logistic equation giving EC50, and Hill coefficient using the iterative non linear curve fitting software Origin (Microcal Software Inc., Northampton, Mass., USA).
In the table below are shown specific EC50 values of compounds of formula I: […]

[3] = Microsome incubation, rat liver microsomes (metabolic stability); type: in vitro ADME; settings: for MAB (rat): maximal achievable bioavailability = 1−E (hepatic extraction ratio), extrapolated from rat microsomal clearance; for microsomal CLint at 10 μM: pH 7.4, rat liver microsomes 1.0 mg prot/mL, test compound 10 μM, 37° C., NADPH regenerating system, calculated from in vitro half-life, read-out: Intrinsic clearance (rat)
Experimental: as §1, §2

T1 sequence (P23385 19-1199): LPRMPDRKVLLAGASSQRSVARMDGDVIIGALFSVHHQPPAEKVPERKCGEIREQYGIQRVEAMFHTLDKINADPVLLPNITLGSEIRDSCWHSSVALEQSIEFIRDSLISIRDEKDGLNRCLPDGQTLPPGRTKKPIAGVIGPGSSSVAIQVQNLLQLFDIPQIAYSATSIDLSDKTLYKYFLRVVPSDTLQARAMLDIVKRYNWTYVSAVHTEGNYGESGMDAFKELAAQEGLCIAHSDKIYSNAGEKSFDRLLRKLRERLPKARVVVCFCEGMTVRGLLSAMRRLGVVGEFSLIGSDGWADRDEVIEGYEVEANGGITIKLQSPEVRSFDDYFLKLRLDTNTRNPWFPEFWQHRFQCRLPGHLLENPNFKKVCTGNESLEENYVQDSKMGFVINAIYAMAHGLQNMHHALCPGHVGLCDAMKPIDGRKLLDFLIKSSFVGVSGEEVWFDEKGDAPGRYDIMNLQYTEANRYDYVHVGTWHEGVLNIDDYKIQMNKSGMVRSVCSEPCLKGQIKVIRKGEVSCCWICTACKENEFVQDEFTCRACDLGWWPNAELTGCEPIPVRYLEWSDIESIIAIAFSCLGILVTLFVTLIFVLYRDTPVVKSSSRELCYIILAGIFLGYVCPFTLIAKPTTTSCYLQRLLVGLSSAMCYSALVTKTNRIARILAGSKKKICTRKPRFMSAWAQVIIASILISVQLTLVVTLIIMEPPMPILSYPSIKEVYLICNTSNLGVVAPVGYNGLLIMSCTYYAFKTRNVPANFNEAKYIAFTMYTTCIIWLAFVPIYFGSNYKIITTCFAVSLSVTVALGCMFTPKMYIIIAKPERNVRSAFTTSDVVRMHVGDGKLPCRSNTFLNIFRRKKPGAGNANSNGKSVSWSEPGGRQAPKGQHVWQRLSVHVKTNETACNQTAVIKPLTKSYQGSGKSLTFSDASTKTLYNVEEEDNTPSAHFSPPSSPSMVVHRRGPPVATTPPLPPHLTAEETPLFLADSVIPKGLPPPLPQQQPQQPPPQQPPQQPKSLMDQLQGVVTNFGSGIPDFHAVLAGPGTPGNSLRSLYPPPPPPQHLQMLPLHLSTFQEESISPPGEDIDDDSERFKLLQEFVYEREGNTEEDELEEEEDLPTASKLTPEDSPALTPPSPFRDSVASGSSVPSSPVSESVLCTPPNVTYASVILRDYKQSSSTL

SMILES | melting point [°C] | MAB (human) [1] [%] | microsomal CLint at 10 μM [1] [µL/min/mg] | EC50 [2] [nM] | MAB (rat) [3] [%] | microsomal CLint at 10 μM [3] [µL/min/mg]
O=C(Nc1nc(C(F)(F)F)co1)C1c2ccccc2Oc2ccc(F)cc21 (racemic) [Example 3, (RS)-2-Fluoro-9H-xanthene-9-carboxylic Acid (4-trifluoromethyl-oxazol-2-yl)-amide] | 241 | 61 | 9.9 | 55 | 32 | 61.4
O=C(Nc1ncc(C(F)(F)F)o1)C1c2ccccc2Oc2ccc(F)cc21 (racemic) [Example 4, (RS)-2-Fluoro-9H-xanthene-9-carboxylic Acid (5-trifluoromethyl-oxazol-2-yl)-amide] | 217 | 45 | 18.8 | 20 | 43 | 40.2
O=C(Nc1nc(C(F)(F)F)co1)C1c2ccccc2Oc2cc(F)ccc21 (racemic) [Example 5, (RS)-3-Fluoro-9H-xanthene-9-carboxylic Acid (4-trifluoromethyl-oxazol-2-yl)-amide] | 221 | 78 | 4.3 | 40 | 46 | 34.3
O=C(Nc1ncc(C(F)(F)F)o1)C1c2ccccc2Oc2cc(F)ccc21 (racemic) [Example 6, (RS)-3-Fluoro-9H-xanthene-9-carboxylic Acid (5-trifluoromethyl-oxazol-2-yl)-amide] | 250 | 63 | 9.2 | – | 52 | 27.8
O=C(Nc1nc(C(F)(F)F)co1)C1c2ccccc2Oc2c(F)cccc21 (racemic) [Example 7, (RS)-4-Fluoro-9H-xanthene-9-carboxylic Acid (4-trifluoromethyl-oxazol-2-yl)-amide] | 233 | 67 | 7.9 | 16 | 48 | 32.8
O=C(Nc1ncc(C(F)(F)F)o1)C1c2ccccc2Oc2c(F)cccc21 (racemic) [Example 8, (RS)-4-Fluoro-9H-xanthene-9-carboxylic Acid (5-trifluoromethyl-oxazol-2-yl)-amide] | 228 | 45 | 19.2 | 21 | 49 | 31.8
O=C(Nc1nc(C(F)(F)F)co1)C1c2ccccc2Oc2ccc(Cl)cc21 (racemic) [Example 13, (RS)-2-Chloro-9H-xanthene-9-carboxylic Acid (4-trifluoromethyl-oxazol-2-yl)-amide] | 235 | – | – | 15 | – | –
O=C(Nc1nc(C(F)(F)F)co1)C1c2ccccc2Oc2c(Cl)cccc21 (racemic) [Example 14, (RS)-4-Chloro-9H-xanthene-9-carboxylic Acid (4-trifluoromethyl-oxazol-2-yl)-amide] | 212 | – | – | 93 | – | –
O=C(Nc1nc(C(F)(F)F)co1)C1c2ccccc2Oc2ccccc21 [Example 1, 9H-Xanthene-9-carboxylic acid (4-trifluoromethyl-oxazol-2-yl)-amide] | – | 68 | 8 | 56 | 25 | 108
O=C(Nc1ncc(C(F)(F)F)o1)C1c2ccccc2Oc2ccccc21 [Example 2, 9H-Xanthene-9-carboxylic Acid (5-trifluoromethyl-oxazol-2-yl)-amide] | 218 | 68 | 14 | 38 | 37 | 50
O=C(Nc1nc(C(F)(F)F)co1)C1c2cc(F)ccc2Oc2ccc(F)cc21 [Example 9, 2,7-Difluoro-9H-xanthene-9-carboxylic Acid (4-trifluoromethyl-oxazol-2-yl)-amide] | 259 | 85 | 2.7 | 44 | 77 | 8.9
O=C(Nc1ncc(C(F)(F)F)o1)C1c2cc(F)ccc2Oc2ccc(F)cc21 [Example 10, 2,7-Difluoro-9H-xanthene-9-carboxylic Acid (5-trifluoromethyl-oxazol-2-yl)-amide] | 232 | 73 | 5.6 | 124 | 54 | 26.1
O=C(Nc1nc(C(F)(F)F)co1)C1c2ccc(F)cc2Oc2cc(F)ccc21 [Example 11, 3,6-Difluoro-9H-xanthene-9-carboxylic Acid (4-trifluoromethyl-oxazol-2-yl)-amide] | 265 | 59 | 11.1 | 3 | 63 | 17.6
O=C(Nc1ncc(C(F)(F)F)o1)C1c2ccc(F)cc2Oc2cc(F)ccc21 [Example 12, 3,6-Difluoro-9H-xanthene-9-carboxylic Acid (5-trifluoromethyl-oxazol-2-yl)-amide] | 249 | 63 | 9.1 | 25 | 72 | 11.6

From patent US7119113B2, “Oxazoles as mGluR1 enhancers” (Hoffmann-La Roche Inc., priority 2002, dated 2006)
